Experimental findings from PubChem BioAssay (NCI) are described below.

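Cells were grown in 96-well plates and exposed to each compound for 48 hours at five concentrations; endpoints were interpolated linearly between bracketing concentrations, or set to the highest concentration if not reached. At the TGI there is no net growth.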

Among the test systems are SF-268 CNS; CCRF-CEM leukemia; OVCAR-5 ovarian; NCI-H522 lung; MALME-3M melanoma; SF-539 CNS; RXF 393 renal; SW-620 colon; RPMI-8226 leukemia; HT29 colon; MDA-MB-435.
Common to all, as to test: growth of human tumour cells (NCI), 48 h

For the compound `CC(=O)Nc1nc(C)c(S(=O)(=O)NC(=O)N2c3ccccc3CCc3ccccc32)s1`, the TGI in the experiment on SF-268 CNS, with CCRF-CEM leukemia, in the experiment with OVCAR-5 ovarian, in the experiment with NCI-H522 lung, in the experiment on MALME-3M melanoma and in the experiment with SF-539 CNS was over 100 µM in each case. Moreover, the TGI in the experiment with RXF 393 renal, with SW-620 colon, in the experiment with RPMI-8226 leukemia, in the experiment on HT29 colon and with MDA-MB-435 was over 100 µM in each case.

As to `O=C1Sc2cc3ccccc3cc2C(=O)Sc2cc3ccccc3cc21`, the TGI in the experiment on SF-268 CNS was over 83.7 µM; in the experiment on CCRF-CEM leukemia, 12.5 µM; with OVCAR-5 ovarian, over 100 µM; in the experiment with NCI-H522 lung it was 41.5 µM; with MALME-3M melanoma, over 93.5 µM; with SF-539 CNS, over 100 µM. Moreover, the TGI in the experiment with RXF 393 renal is 35.7 µM; with SW-620 colon, over 100 µM; with RPMI-8226 leukemia, over 24.6 µM; in the experiment on HT29 colon it was over 90.5 µM; in the experiment with MDA-MB-435 it was over 100 µM.

For `CCOC(=O)c1nc2ccccc2nc1Nc1ccc(F)cc1`, the TGI in the experiment with SF-268 CNS is 30 µM; in the experiment on CCRF-CEM leukemia it was over 100 µM; in the experiment with OVCAR-5 ovarian, over 100 µM; in the experiment on NCI-H522 lung it was over 100 µM; in the experiment with MALME-3M melanoma it was over 100 µM; in the experiment on SF-539 CNS, over 58.9 µM. The TGI in the experiment on RXF 393 renal was 26.7 µM; with SW-620 colon, over 100 µM; in the experiment on RPMI-8226 leukemia, over 100 µM; with HT29 colon it was over 100 µM; with MDA-MB-435, over 100 µM.

Regarding `CC1Cc2c(cc(N)nc2Br)NC1=O` (configuration not stated), the TGI in the experiment with SF-268 CNS, with CCRF-CEM leukemia, in the experiment on OVCAR-5 ovarian, in the experiment on NCI-H522 lung, in the experiment with MALME-3M melanoma and in the experiment on SF-539 CNS was over 100 µM throughout. Moreover, the TGI in the experiment on RXF 393 renal, in the experiment on SW-620 colon, with RPMI-8226 leukemia, with HT29 colon and in the experiment with MDA-MB-435 was over 100 µM each time.

For the compound `COc1ccc(OC)c(-c2cn3c(n2)sc2ccccc23)c1`, the TGI in the experiment with SF-268 CNS, in the experiment with CCRF-CEM leukemia, in the experiment on OVCAR-5 ovarian, in the experiment with NCI-H522 lung, in the experiment with MALME-3M melanoma and in the experiment on SF-539 CNS was over 100 µM each time. Besides, the TGI in the experiment with RXF 393 renal, with SW-620 colon, in the experiment with RPMI-8226 leukemia, with HT29 colon and with MDA-MB-435 was over 100 µM each time.

With `O=C1/C(=C(/Br)I)c2ccccc2-c2ccccc21`, the TGI in the experiment on SF-268 CNS was 31.1 µM; with CCRF-CEM leukemia it was 5.93 µM; in the experiment on OVCAR-5 ovarian it was 25.5 µM; in the experiment with NCI-H522 lung, 5.27 µM; with MALME-3M melanoma, 11.5 µM; in the experiment on SF-539 CNS, 28.7 µM. Besides, the TGI in the experiment on RXF 393 renal was 13.1 µM; with SW-620 colon it was 8.12 µM; with RPMI-8226 leukemia, 8.37 µM; in the experiment with HT29 colon it was 18.3 µM; with MDA-MB-435 it was 22 µM.

In the case of `O=c1[nH]nc(N/N=C\c2ccc(Cl)cc2)c2ccccc12`, the TGI in the experiment with SF-268 CNS is 55.5 µM; in the experiment with CCRF-CEM leukemia, over 100 µM; in the experiment on OVCAR-5 ovarian, 31.8 µM; with NCI-H522 lung it was 48 µM; in the experiment on MALME-3M melanoma, 45.4 µM; in the experiment on SF-539 CNS, 47.6 µM. Further, the TGI with RXF 393 renal is 56.2 µM; with SW-620 colon, over 100 µM; in the experiment on RPMI-8226 leukemia it was over 100 µM; in the experiment with HT29 colon, over 100 µM; in the experiment on MDA-MB-435, 32.4 µM.

With `CCCC(CC)c1cc(O)c(O)cc1C(CC)CCC` (configuration not stated), the TGI in the experiment with SF-268 CNS, in the experiment on CCRF-CEM leukemia, in the experiment on OVCAR-5 ovarian, in the experiment on NCI-H522 lung, with MALME-3M melanoma and in the experiment on SF-539 CNS was over 10 µM each time. Besides, the TGI in the experiment with RXF 393 renal, with SW-620 colon, in the experiment with RPMI-8226 leukemia, in the experiment with HT29 colon and with MDA-MB-435 was over 10 µM throughout.

For the compound `Cc1cc2nc3c(N)nn(CCN(C)C)c3nc2cc1C`, the TGI with SF-268 CNS, in the experiment with CCRF-CEM leukemia, with OVCAR-5 ovarian, in the experiment with NCI-H522 lung, in the experiment on MALME-3M melanoma and in the experiment with SF-539 CNS was over 100 µM each time. In addition, the TGI in the experiment on RXF 393 renal, in the experiment with SW-620 colon, in the experiment on RPMI-8226 leukemia, in the experiment on HT29 colon and with MDA-MB-435 was over 100 µM each time.

For `CCOc1ccccc1N=NC1C(=O)N(C(=O)CC(=O)Nc2ccccc2OC)N=C1C` (configuration not stated), the TGI in the experiment on SF-268 CNS is 68.8 µM; in the experiment on CCRF-CEM leukemia, over 100 µM; with OVCAR-5 ovarian it was over 100 µM; in the experiment on NCI-H522 lung it was over 100 µM; in the experiment on MALME-3M melanoma it was over 100 µM; with SF-539 CNS, over 100 µM. Besides, the TGI in the experiment with RXF 393 renal is 81.5 µM; with SW-620 colon, over 100 µM; in the experiment on RPMI-8226 leukemia, over 100 µM; in the experiment with HT29 colon, over 100 µM; with MDA-MB-435 it was over 100 µM.

For `Cc1ccc(C2(N3CCOCC3)OC(C)(C)c3cccc4cccc2c34)cc1` (configuration not stated), the TGI in the experiment with SF-268 CNS came to 28.7 µM; with CCRF-CEM leukemia, 65.7 µM; with OVCAR-5 ovarian, 34.4 µM; in the experiment with NCI-H522 lung it was 30.8 µM; with MALME-3M melanoma, 36.9 µM; in the experiment with SF-539 CNS, 34.8 µM. Besides, the TGI amounted to 31.5 µM with RXF 393 renal; 37 µM in the experiment with SW-620 colon; 37.9 µM in the experiment with RPMI-8226 leukemia; 31.8 µM in the experiment with HT29 colon; 32.6 µM in the experiment with MDA-MB-435.

As to `COc1ccc(/C=N/N=C(\N)NO)c(OC)c1OC`, the TGI with SF-268 CNS was over 100 µM; in the experiment on CCRF-CEM leukemia, 76.1 µM; with OVCAR-5 ovarian, over 100 µM; in the experiment on NCI-H522 lung it was over 100 µM; in the experiment with MALME-3M melanoma, over 100 µM; in the experiment with SF-539 CNS, 61.7 µM. Further, the TGI in the experiment with RXF 393 renal, with SW-620 colon, in the experiment with RPMI-8226 leukemia, in the experiment with HT29 colon and in the experiment with MDA-MB-435 was over 100 µM each time.
